The values below are quoted from earlier work in article PMC8875686, “Oral Formulation Based on Irbesartan Nanocrystals Improve Drug Solubility, Absorbability, and Efficacy” (Pharmaceutics, 2022).

≈ marks a conversion by molar mass, not a printed value.

The conditions of data set [1]: room temperature.
The conditions of data set [2]: oral administration.

Broadly, the solubility is the dissolved amount per volume that the medium holds. As to `CCCCC1=NC2(CCCC2)C(=O)N1Cc1ccc(-c2ccccc2-c2nnn[nH]2)cc1` [form A], in data set [1], the solubility entry is reported as “approximately 0.011 mg/mL”. For `CCCCC1=NC2(CCCC2)C(=O)N1Cc1ccc(-c2ccccc2-c2nnn[nH]2)cc1` [IRB, Irbesartan], in data set [2], the “average absolute bioavailability (BA)” value is given as 60–80% and the “time of Cmax (peak plasma concentrations)” value was 1.5 to 2 h.

For `CCCCC1=NC2(CCCC2)C(=O)N1Cc1ccc(-c2ccccc2-c2nnn[nH]2)cc1` [form B], in data set [1], the solubility was roughly 0.6 µg/mL (≈ 1.4 µM).
